Reference: patent US10538491B2, “4,5-substituted picolinamide and picolinonitrile metabotropic glutamate receptor 2 negative allosteric modulators” (Vanderbilt University, priority 2015, dated 2020)

Molecular target: rat mGlu2 (Rattus norvegicus (Rat), UniProt P31421)
Test: mGlu2 Ca2+ flux assay
Assay type: cell-based
Settings: for IC50: Gα15 HEK293 cells stably expressing rat mGlu2, glutamate EC80, >10,000 = no plateau, >30,000 = no measurable activity; for remaining activity at 30 µM: amplitude of response in the presence of 30 μM test compound as percentage of maximal response to glutamate, read-out: rat mGlu2 Glu max
Description: Gα15 HEK293 cells stably expressing rat mGlu2 were plated in black-walled, clear-bottomed, poly-D-lysine coated 384-well plates in 20 μL of assay medium (DMEM containing 10% dialyzed FBS, 20 mM HEPES, and 1 mM sodium pyruvate) at a density of 12K cells/well. The cells were grown overnight at 37° C. in the presence of 5% CO2. The next day, medium was removed and the cells incubated with 20 μL of 2.3 μM Fluo-4, AM prepared as a 2.3 mM stock in DMSO and mixed in a 1:1 ratio with 10% (w/v) pluronic acid F-127 and diluted in assay buffer (Hank's balanced salt solution, 20 mM HEPES, and 2.5 mM probenecid) for 45 minutes at 37° C. Dye was removed, 20 μL of assay buffer was added, and the plate was incubated for 5 minutes at room temperature.
Ca^2+ flux was measured using the Functional Drug Screening System (FDSS7000, Hamamatsu, Japan). After establishment of a fluorescence baseline for about 3 seconds, the compounds of the present invention were added to the cells, and the response in cells was measured. 2.3 minutes later an EC20 concentration of the mGlu2 receptor agonist glutamate was added to the cells, and the response of the cells was measured for 1.9 minutes; an EC80 concentration of agonist was added and readings taken for an additional 1.7 minutes. All test compounds were dissolved and diluted to a concentration of 10 mM in 100% DMSO. Compounds were then serially diluted 1:3 in DMSO into 10 point concentration response curves, transferred to daughter plates, and further diluted into assay buffer to a 2× stock. Calcium fluorescence measures were recorded as fold over basal fluorescence; raw data was then normalized to the maximal response to glutamate. Antagonism of the agonist response of the mGlu2 receptor in the present invention was observed as a decrease in response to nearly maximal concentrations of glutamate in the presence of compound compared to the response to glutamate in the absence of compound.
The raw data file containing all time points was used as the data source in the analysis template. This was saved by the FDSS as a tab-delimited text file. Data were normalized using a static ratio function (F/F0) for each measurement of the total 360 values per well divided by each well's initial value. Data were then reduced to peak amplitudes (Max−Initial Min) using a time range that starts approximately 3 seconds prior to the glutamate EC80 addition and continues for approximately 90 seconds. This is sufficient time to capture the peak amplitude of the cellular calcium response. Individual amplitudes were expressed as % ECMax by multiplying each amplitude by 100 and then dividing the product by the mean of the amplitudes derived from the glutamate ECMax-treated wells. IC50 values for test compounds were generated by fitting the normalized values versus the log of the test compound concentration (in mol/L) using a 4 parameter logistic equation where none of the parameters were fixed. Each of the three values collected at each concentration of test compound were weighted evenly.
For NAMs, potency (IC50) and maximum response (% Glu Max), i.e. the amplitude of response in the presence of 30 μM test compound as a percentage of the maximal response to glutamate, are reported. […] Compounds with no measurable activity are designated as “>30,000 nM” since the top concentration of compound tested in the assay is 30 μM.

rat mGlu2, sequence (P31421 19-872): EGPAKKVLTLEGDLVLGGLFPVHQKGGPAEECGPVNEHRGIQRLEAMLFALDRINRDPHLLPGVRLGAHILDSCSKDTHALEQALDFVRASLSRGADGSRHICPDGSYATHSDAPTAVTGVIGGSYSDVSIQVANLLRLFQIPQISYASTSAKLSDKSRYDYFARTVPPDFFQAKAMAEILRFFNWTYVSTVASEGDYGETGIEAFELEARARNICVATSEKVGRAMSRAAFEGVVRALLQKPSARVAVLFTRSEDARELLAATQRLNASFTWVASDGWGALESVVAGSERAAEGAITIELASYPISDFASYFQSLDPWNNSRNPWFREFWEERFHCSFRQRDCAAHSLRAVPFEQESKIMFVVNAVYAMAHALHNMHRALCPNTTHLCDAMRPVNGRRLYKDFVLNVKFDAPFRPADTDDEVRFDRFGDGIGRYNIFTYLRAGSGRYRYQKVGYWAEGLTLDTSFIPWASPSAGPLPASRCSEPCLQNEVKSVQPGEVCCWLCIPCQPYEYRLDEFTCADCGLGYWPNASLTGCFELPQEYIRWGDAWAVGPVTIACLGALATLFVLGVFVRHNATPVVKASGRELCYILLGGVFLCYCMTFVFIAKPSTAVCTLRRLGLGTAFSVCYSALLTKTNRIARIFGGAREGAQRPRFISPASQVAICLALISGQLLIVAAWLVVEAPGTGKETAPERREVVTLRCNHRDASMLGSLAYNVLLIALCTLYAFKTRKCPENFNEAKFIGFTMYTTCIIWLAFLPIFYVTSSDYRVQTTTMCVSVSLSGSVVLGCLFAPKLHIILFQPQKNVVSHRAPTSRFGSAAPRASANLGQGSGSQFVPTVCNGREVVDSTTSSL

IC50 [nM]	remaining activity at 30 µM [%]	SMILES
1590	10.1	NC(=O)c1cc(-c2ccc(F)cc2)c(OCc2cccc(Br)c2)cn1 [Compound 34, 5-((3-bromobenzyl)oxy)-4-(4-fluorophenyl)picolinamide]
1110	1.55	NC(=O)c1cc(-c2ccc(F)cc2)c(OCc2ccccc2Br)cn1 [Compound 35, 5-((2-bromobenzyl)oxy)-4-(4-fluorophenyl)picolinamide]
650	3.82	NC(=O)c1cc(-c2ccc(F)cc2)c(OCc2cc(Br)ccc2F)cn1 [Compound 36, 5-((5-bromo-2-fluorobenzyl)oxy)-4-(4-fluorophenyl)picolinamide]
1470	3.54	NC(=O)c1cc(-c2ccc(F)cc2)c(OCc2cc(F)cc(Br)c2)cn1 [Compound 37, 5-((3-bromo-5-fluorobenzyl)oxy)-4-(4-fluorophenyl)picolinamide]
507 ± 123	5.84 ± 1.16	NC(=O)c1cc(-c2ccc(F)cc2)c(OCc2cccnc2)cn1 [Compound 38, 4-(4-fluorophenyl)-5-(pyridin-3-ylmethoxy)picolinamide]
39	1.36	COc1ccc(-c2cc(C(N)=O)ncc2OCc2cccnc2)c(F)c1 [Compound 39, 4-(2-fluoro-4-methoxyphenyl)-5-(pyridin-3-ylmethoxy)picolinamide]
> 30000		NC(=O)c1cc(-c2ccc(C(F)(F)F)nc2)c(OCc2cccnc2)cn1 [Compound 40, 5′-(pyridin-3-ylmethoxy)-6-(trifluoromethyl)[3,4′-bipyridine]-2′-carboxamide]
343	1.59	Cc1ccc(COc2cnc(C(N)=O)cc2-c2ccc(F)cc2)cn1 [Compound 41, 4-(4-fluorophenyl)-5-((6-methylpyridin-3-yl)methoxy)picolinamide]
266	2.2	COc1ccc(COc2cnc(C(N)=O)cc2-c2ccc(F)cc2)cn1 [Compound 42, 4-(4-fluorophenyl)-5-((6-methoxypyridin-3-yl)methoxy)picolinamide]
717	0.74	NC(=O)c1cc(-c2ccc(F)cc2)c(OCc2ccc(C(F)(F)F)nc2)cn1 [Compound 43, 4-(4-fluorophenyl)-5-((6-(trifluoromethyl)pyridin-3-yl)methoxy)picolinamide]
239	0.42	NC(=O)c1cc(-c2ccc(F)cc2)c(OCc2ccncc2)cn1 [Compound 44, 4-(4-fluorophenyl)-5-(pyridin-4-ylmethoxy)picolinamide]
195	1.17	Cc1cc(COc2cnc(C(N)=O)cc2-c2ccc(F)cc2)ccn1 [Compound 45, 4-(4-fluorophenyl)-5-((2-methylpyridin-4-yl)methoxy)picolinamide]
204	2.17	COc1cc(COc2cnc(C(N)=O)cc2-c2ccc(F)cc2)ccn1 [Compound 46, 4-(4-fluorophenyl)-5-((2-methoxypyridin-4-yl)methoxy)picolinamide]
2710	0.41	CC(Oc1cnc(C(N)=O)cc1-c1ccc(F)cc1)c1cccnc1 (stereo not drawn) [Compound 47, 4-(4-fluorophenyl)-5-(1-(pyridin-3-yl)ethoxy)picolinamide]
504	1.4	CC(Oc1cnc(C(N)=O)cc1-c1ccc(F)cc1)c1ccncc1 (stereo not drawn) [Compound 48, 4-(4-fluorophenyl)-5-(1-(pyridin-4-yl)ethoxy)picolinamide]
1470	-0.08	NC(=O)c1cc(-c2ccc(F)cc2)c(OCc2cccnn2)cn1 [Compound 49, 4-(4-fluorophenyl)-5-(pyridazin-3-ylmethoxy)picolinamide]

IC50 [nM]	remaining activity at 30 µM [%]	SMILES
129	1.41	NC(=O)c1cc(-c2ccc(F)cc2)c(OCc2ccc3nccn3c2)cn1 [Compound 50, 4-(4-fluorophenyl)-5-(imidazo[1,2-a]pyridin-6-ylmethoxy)picolinamide]
263	1.01	NC(=O)c1cc(-c2ccc(F)cc2)c(OCc2cncs2)cn1 [Compound 51, 4-(4-fluorophenyl)-5-(thiazol-5-ylmethoxy)picolinamide]
66	0.93	Cn1ccc(COc2cnc(C(N)=O)cc2-c2ccc(F)cc2)n1 [Compound 52, 4-(4-fluorophenyl)-5-((1-methyl-1H-pyrazol-3-yl)methoxy)picolinamide]
1000	-0.46	Cn1cc(COc2cnc(C(N)=O)cc2-c2ccc(F)cc2)cn1 [Compound 53, 4-(4-fluorophenyl)-5-((1-methyl-1H-pyrazol-4-yl)methoxy)picolinamide]
1370	1.35	NC(=O)c1cc(-c2ccc(F)cc2)c(OCCOc2cccnc2)cn1 [Compound 54, 4-(4-fluorophenyl)-5-(2-(pyridin-3-yloxy)ethoxy)picolinamide]
1580	4.02	CN(CCOc1cnc(C(N)=O)cc1-c1ccc(F)cc1)c1ccnc(C(F)(F)F)c1 [Compound 55, 4-(4-fluorophenyl)-5-(2-(methyl(2-(trifluoromethyl)pyridin-4-yl)amino)ethoxy)picolinamide]
4190	4.5	NC(=O)c1cc(-c2ccc(F)cc2)c(OC2CCN(c3ccnc(C(F)(F)F)c3)CC2)cn1 [Compound 56, 4-(4-fluorophenyl)-5-((1-(2-(trifluoromethyl)pyridin-4-yl)piperidin-4-yl)oxy)picolinamide]
2120	2.39	NC(=O)c1cc(-c2ccc(F)cc2)c(OC2CCN(c3ccnc(C(F)(F)F)c3)C2)cn1 (stereo not drawn) [Compound 57, 4-(4-fluorophenyl)-5-((1-(2-(trifluoromethyl)pyridin-4-yl)pyrrolidin-3-yl)oxy)picolinamide]
4140	4.3	NC(=O)c1cc(-c2ccc(F)cc2)c(OC2CN(c3ccnc(C(F)(F)F)c3)C2)cn1 [Compound 58, 4-(4-fluorophenyl)-5-((1-(2-(trifluoromethyl)pyridin-4-yl)azetidin-3-yl)oxy)picolinamide]
4630	35.8	Cc1ccc(OC(C)COc2cnc(C#N)cc2-c2ccc(F)cc2)cn1 (stereo not drawn) [Compound 62, 4-(4-fluorophenyl)-5-(2-((6-methylpyridin-3-yl)oxy)propoxy)picolinonitrile]
> 10000	30.7	CC(COc1cnc(C#N)cc1-c1ccc(F)cc1)Oc1ccnc(C(F)(F)F)c1 (stereo not drawn) [Compound 63, 4-(4-fluorophenyl)-5-(2-((2-(trifluoromethyl)pyridin-4-yl)oxy)propoxy)picolinonitrile]
> 30000		Cc1ncc(OCCCOc2cnc(C#N)cc2-c2ccc(F)cc2)cn1 [Compound 64, 4-(4-fluorophenyl)-5-(3-((2-methylpyrimidin-5-yl)oxy)propoxy)picolinonitrile]
> 10000	68.8	N#Cc1cc(-c2ccc(F)cc2)c(OCCCOc2cccnc2)cn1 [Compound 65, 4-(4-fluorophenyl)-5-(3-(pyridin-3-yloxy)propoxy)picolinonitrile]
> 30000		N#Cc1cc(-c2ccc(F)cc2)c(OCCCOc2ccc(C(F)(F)F)nc2)cn1 [Compound 66, 4-(4-fluorophenyl)-5-(3-((6-(trifluoromethyl)pyridin-3-yl)oxy)propoxy)picolinonitrile]
> 30000		N#Cc1cc(-c2ccc(F)cc2)c(OCCCOc2ccnc(C(F)(F)F)c2)cn1 [Compound 67, 4-(4-fluorophenyl)-5-(3-((2-(trifluoromethyl)pyridin-4-yl)oxy)propoxy)picolinonitrile]
> 10000	29	Cc1ccc(OCCCOc2cnc(C#N)cc2-c2ccc(F)cc2)cn1 [Compound 68, 4-(4-fluorophenyl)-5-(3-((6-methylpyridin-3-yl)oxy)propoxy)picolinonitrile]
